Test results from US10246456B2, “IRAK4 inhibiting agents” (BIOGEN MA INC., priority 2014, dated 2019).

The compounds below were run against IRAK4 (Homo sapiens (Human), UniProt Q9NWZ3) (assay: IRAK-4 AlphaScreen biochemical kinase assay). Conditions: 1 nM IRAK4, 1 mM ATP, 3.5 h at RT.
Procedure: The biochemical assay is in a AlphaScreen format. The kinase reaction is based on the IRAK-4 phosphorylation of a biotin labeled peptide. The phosphopeptide is incubated with anti-phosphothreonine antibody as well as streptavidin- and protein A-coated beads. Binding of the protein-A coated beads to the antibody and the streptavidin beads to the peptide, leads to an energy transfer from one bead to the other, ultimately producing a luminescent/fluorescent signal.

Chain of IRAK4 (Q9NWZ3 whole entry, species assumed): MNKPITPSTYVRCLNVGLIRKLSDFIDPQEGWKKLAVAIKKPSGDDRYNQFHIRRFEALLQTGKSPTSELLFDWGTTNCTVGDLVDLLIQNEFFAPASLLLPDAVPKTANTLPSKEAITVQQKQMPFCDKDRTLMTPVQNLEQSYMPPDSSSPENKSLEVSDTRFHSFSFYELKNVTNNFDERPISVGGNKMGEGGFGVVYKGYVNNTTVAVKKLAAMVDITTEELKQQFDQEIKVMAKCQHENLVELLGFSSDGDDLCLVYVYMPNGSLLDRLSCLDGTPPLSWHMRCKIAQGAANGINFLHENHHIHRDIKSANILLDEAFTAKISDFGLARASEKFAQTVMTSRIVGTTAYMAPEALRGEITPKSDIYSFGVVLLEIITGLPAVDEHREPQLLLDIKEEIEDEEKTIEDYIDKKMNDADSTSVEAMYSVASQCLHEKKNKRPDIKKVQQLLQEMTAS

Row | IC50 [nM] | Compound
1 | 100 to 1000 | N#Cc1cccc(-n2ncc3ccc(-c4cncc(N)c4)cc32)c1 [Example 33, 3-(6-(5-aminopyridin-3-yl)-1H-indazol-1-yl)benzonitrile]
2 | 100 to 1000 | Cc1cc(C#N)cc(-n2ncc3ccc(-c4cncc(N)c4)cc32)n1 [Example 34, 2-(6-(5-aminopyridin-3-yl)-1H-indazol-1-yl)-6-methylisonicotinonitrile]
3 | 100 to 1000 | N#Cc1ccnc(-n2ncc3ccc(-c4cncc(N)c4)cc32)c1 [Example 35, 2-(6-(5-aminopyridin-3-yl)-1H-indazol-1-yl)isonicotinonitrile]
4 | < 100 | Cc1ccnc(-n2ncc3ccc(-c4cncc(N)c4)cc32)n1 [Example 36, 5-(1-(4-methylpyrimidin-2-yl)-1H-indazol-6-yl)pyridin-3-amine]
5 | < 100 | N#Cc1ccnc(-n2ncc3ccc(-c4cncc(N)c4)cc32)n1 [Example 37, 2-(6-(5-aminopyridin-3-yl)-1H-indazol-1-yl)pyrimidine-4-carbonitrile]
6 | 100 to 1000 | Cc1ccnc(-n2ncc3ccc(-c4cncc(N)c4)cc32)c1 [Example 39, 5-(1-(4-methylpyridin-2-yl)-1H-indazol-6-yl)pyridin-3-amine]
7 | < 100 | Nc1cncc(-c2ccc3cnn(-c4cccc(C(F)(F)F)n4)c3c2)c1 [Example 40, 5-(1-(6-(trifluoromethyl)pyridin-2-yl)-1H-indazol-6-yl)pyridin-3-amine]
8 | < 100 | Cc1cccc(-c2ncc3ccc(-c4cncc(N)c4)cn23)n1 [Example 41, 5-(3-(6-methylpyridin-2-yl)imidazo[1,5-a]pyridin-6-yl)pyridin-3-amine]
9 | < 100 | Cc1cccc(-c2ncc3ccc(-c4cccc(N)c4)cn23)n1 [Example 42, 3-(3-(6-methylpyridin-2-yl)imidazo[1,5-a]pyridin-6-yl)aniline]
10 | 100 to 1000 | Cc1cccc(-n2ncc3cc(F)c(-c4cncc(N)c4)cc32)n1 [Example 43, 5-(5-fluoro-1-(6-methylpyridin-2-yl)-1H-indazol-6-yl)pyridin-3-amine]
11 | 1000 to 10000 | Cc1cccc(-n2ncc3cc(C)c(-c4cncc(N)c4)cc32)n1 [Example 44, 5-(5-methyl-1-(6-methylpyridin-2-yl)-1H-indazol-6-yl)pyridin-3-amine]
12 | 100 to 1000 | N#Cc1cccc(-n2ncc3ccc(-c4cccc(CN)n4)cc32)n1 [Example 46, 6-(6-(6-(aminomethyl)pyridin-2-yl)-1H-indazol-1-yl)picolinonitrile]
13 | < 100 | NCc1cccc(-c2ccc3cnn(-c4cccc(C(N)=O)n4)c3c2)n1 [Example 47, 6-(6-(6-(aminomethyl)pyridin-2-yl)-1H-indazol-1-yl)picolinamide]
14 | < 100 | COC(=O)c1cc(-c2cncc(N)c2)cc2c1cnn2-c1cccc(C#N)n1 [Example 49, methyl 6-(5-aminopyridin-3-yl)-1-(6-cyanopyridin-2-yl)-1H-indazole-4-carboxylate]
15 | < 100 | COC(=O)c1cc(-c2cncc(N)c2)cc2c1cnn2-c1cccc(C(F)(F)F)n1 [Example 50, methyl 6-(5-aminopyridin-3-yl)-1-(6-(trifluoromethyl)pyridin-2-yl)-1H-indazole-4-carboxylate]
16 | < 100 | Nc1cncc(-c2cc(C(=O)O)c3cnn(-c4cccc(C(F)(F)F)n4)c3c2)c1 [Example 51, 6-(5-aminopyridin-3-yl)-1-(6-(trifluoromethyl)pyridin-2-yl)-1H-indazole-4-carboxylic acid]
17 | 100 to 1000 | NCc1cc(-c2cncc(N)c2)cc2c1cnn2-c1cccc(C(F)(F)F)n1 [Example 53, 5-(4-(aminomethyl)-1-(6-(trifluoromethyl)pyridin-2-yl)-1H-indazol-6-yl)pyridin-3-amine]
18 | < 100 | Nc1cncc(-c2cc(CO)c3cnn(-c4cccc(C(F)(F)F)n4)c3c2)c1 [Example 54, (6-(5-aminopyridin-3-yl)-1-(6-(trifluoromethyl)pyridin-2-yl)-1H-indazol-4-yl)methanol]
19 | < 100 | Cc1cccc(-n2ncc3ccc(-c4cccc(C(C)N)n4)cc32)n1 (stereo not drawn) [Example 55, 1-(6-(1-(6-methylpyridin-2-yl)-1H-indazol-6-yl)pyridin-2-yl)ethanamine]
20 | 100 to 1000 | N#CCCCNC(=O)c1cccc(-n2ncc3ccc(-c4cncc(N)c4)cc32)n1 [Example 71, 6-(6-(5-aminopyridin-3-yl)-1H-indazol-1-yl)-N-(3-cyanopropyl)picolinamide]
21 | 1000 to 10000 | N#Cc1cccc(-c2ncc3ccc(-c4cncc(N)c4)cn23)c1 [Example 75, 3-(6-(5-aminopyridin-3-yl)imidazo[1,5-a]pyridin-3-yl)benzonitrile]
22 | < 100 | N#Cc1cccc(-c2ncc3ccc(-c4cncc(N)c4)cn23)n1 [Example 76, 6-(6-(5-aminopyridin-3-yl)imidazo[1,5-a]pyridin-3-yl)picolinonitrile]

The next lines start with the compound.

Row | Compound | IC50 [nM]
23 | Cc1ccc(Cl)c(-n2ncc3ccc(-c4cncc(N)c4)cc32)n1 [Example 38, 5-(1-(3-chloro-6-methylpyridin-2-yl)-1H-indazol-6-yl)pyridin-3-amine] | 1000 to 10000
24 | NCc1cccc(-c2ccc3cnn(-c4cccc(C(F)(F)F)n4)c3c2)n1 [Example 48, (6-(1-(6-(trifluoromethyl)pyridin-2-yl)-1H-indazol-6-yl)pyridin-2-yl)methanamine] | < 100
25 | NC(=O)c1cc(-c2cncc(N)c2)cc2c1cnn2-c1cccc(C(F)(F)F)n1 [Example 52, 6-(5-aminopyridin-3-yl)-1-(6-(trifluoromethyl)pyridin-2-yl)-1H-indazole-4-carboxamide] | < 100
26 | COC(=O)c1cc(-c2cccc(C(C)N)n2)cc2c1cnn2-c1cccc(C(F)(F)F)n1 (stereo not drawn) [Example 56, methyl 6-(6-(1-aminoethyl)pyridin-2-yl)-1-(6-(trifluoromethyl)pyridin-2-yl)-1H-indazole-4-carboxylate] | < 100
27 | CC(N)c1cccc(-c2cc(CO)c3cnn(-c4cccc(C(F)(F)F)n4)c3c2)n1 (stereo not drawn) [Example 57, (6-(6-(1-aminoethyl)pyridin-2-yl)-1-(6-(trifluoromethyl)pyridin-2-yl)-1H-indazol-4-yl)methanol] | < 100
28 | CC(N)c1cccc(-c2cc(C(=O)N(C)C)c3cnn(-c4cccc(C(F)(F)F)n4)c3c2)n1 (stereo not drawn) [Example 58, 6-(6-(1-aminoethyl)pyridin-2-yl)-N,N-dimethyl-1-(6-(trifluoromethyl)pyridin-2-yl)-1H-indazole-4-carboxamide] | 100 to 1000
29 | CNC(=O)c1cc(-c2cccc(C(C)N)n2)cc2c1cnn2-c1cccc(C(F)(F)F)n1 (stereo not drawn) [Example 59, 6-(6-(1-aminoethyl)pyridin-2-yl)-N-methyl-1-(6-(trifluoromethyl)pyridin-2-yl)-1H-indazole-4-carboxamide] | < 100
30 | CN(C)C(=O)c1cc(-c2cncc(N)c2)cc2c1cnn2-c1cccc(C(F)(F)F)n1 [Example 60, 6-(5-aminopyridin-3-yl)-N,N-dimethyl-1-(6-(trifluoromethyl)pyridin-2-yl)-1H-indazole-4-carboxamide] | 1000 to 10000
31 | CNC(=O)c1cc(-c2cncc(N)c2)cc2c1cnn2-c1cccc(C(F)(F)F)n1 [Example 61, 6-(5-aminopyridin-3-yl)-N-methyl-1-(6-(trifluoromethyl)pyridin-2-yl)-1H-indazole-4-carboxamide] | < 100
32 | NC1CCc2ccc(-c3ccc4cnn(-c5cccc(C(F)(F)F)n5)c4c3)nc21 (stereo not drawn) [Example 62, 2-(1-(6-(trifluoromethyl)pyridin-2-yl)-1H-indazol-6-yl)-6,7-dihydro-5H-cyclopenta[b]pyridin-7-amine] | 1000 to 10000
33 | NC1CCCc2ccc(-c3ccc4cnn(-c5cccc(C(F)(F)F)n5)c4c3)nc21 (stereo not drawn) [Example 63, 2-(1-(6-(trifluoromethyl)pyridin-2-yl)-1H-indazol-6-yl)-5,6,7,8-tetrahydroquinolin-8-amine] | < 100
34 | Nc1cncc(-c2ccc3cnn(-c4cccc(C(=O)NCCO)n4)c3c2)c1 [Example 65, 6-(6-(5-aminopyridin-3-yl)-1H-indazol-1-yl)-N-(2-hydroxyethyl)picolinamide] | 100 to 1000
35 | Nc1cncc(-c2ccc3cnn(-c4cccc(C(=O)NCCCO)n4)c3c2)c1 [Example 66, 6-(6-(5-aminopyridin-3-yl)-1H-indazol-1-yl)-N-(3-hydroxypropyl)picolinamide] | 100 to 1000
36 | CC(O)CNC(=O)c1cccc(-n2ncc3ccc(-c4cncc(N)c4)cc32)n1 (stereo not drawn) [Example 67, 6-(6-(5-aminopyridin-3-yl)-1H-indazol-1-yl)-N-(2-hydroxypropyl)picolinamide] | 1000 to 10000
37 | Nc1cncc(-c2ccc3cnn(-c4cccc(C(=O)N5CC(O)C5)n4)c3c2)c1 [Example 68, (6-(6-(5-aminopyridin-3-yl)-1H-indazol-1-yl)pyridin-2-yl)(3-hydroxyazetidin-1-yl)methanone] | 100 to 1000
38 | CN(C)CCNC(=O)c1cccc(-n2ncc3ccc(-c4cncc(N)c4)cc32)n1 [Example 69, 6-(6-(5-aminopyridin-3-yl)-1H-indazol-1-yl)-N-(2-(dimethylamino)ethyl)picolinamide] | 1000 to 10000
39 | N#CCCNC(=O)c1cccc(-n2ncc3ccc(-c4cncc(N)c4)cc32)n1 [Example 70, 6-(6-(5-aminopyridin-3-yl)-1H-indazol-1-yl)-N-(2-cyanoethyl)picolinamide] | 1000 to 10000
40 | NCCNC(=O)c1cccc(-n2ncc3ccc(-c4cncc(N)c4)cc32)n1 [Example 72, N-(2-aminoethyl)-6-(6-(5-aminopyridin-3-yl)-1H-indazol-1-yl)picolinamide] | < 100
41 | N#CCNC(=O)c1cccc(-n2ncc3ccc(-c4cncc(N)c4)cc32)n1 [Example 73, 6-(6-(5-aminopyridin-3-yl)-1H-indazol-1-yl)-N-(cyanomethyl)picolinamide] | 1000 to 10000
42 | CS(=O)(=O)CCNC(=O)c1cccc(-n2ncc3ccc(-c4cncc(N)c4)cc32)n1 [Example 74, 6-(6-(5-aminopyridin-3-yl)-1H-indazol-1-yl)-N-(2-(methylsulfonyl)ethyl)picolinamide] | 1000 to 10000
